Measurements as given in publication PMC9499506, “TNF-α and IL-1β Modulate Blood-Brain Barrier Permeability and Decrease Amyloid-β Peptide Efflux in a Human Blood-Brain Barrier Model” (International Journal of Molecular Sciences, 2022).

Legend:
BLEC monolayer = assay: Effect of cytokines on BLEC monolayer permeability to lucifer yellow (PeLY); assay type: cell-based, human; details: for increase in transcellular passage of LY through BLEC monolayer compared to control / increase in paracellular passage of LY through BLEC monolayer compared to control: 10 ng·mL^−1, 24 h; for increase in transcellular passage of LY through BLEC monolayer compared to control: PeLY 37 °C minus PeLY 4 °C; for increase in paracellular passage of LY through BLEC monolayer compared to control: PeLY at 4 °C; for PeLY of BLECs after cytokine treatment: 10 ng·mL^−1 basolateral, 24 h, LY 50 µM apical-to-basolateral, RH buffer, 37 °C, 60 min, untreated 0.54 ± 0.03, mean ± SEM
Procedure: Next, we examined the effect of TNF-α and IL-1β on BBB permeability. The physical integrity of the BLECs was monitored by measuring the rate of passage of the small hydrophilic marker lucifer yellow (LY; ~400 Da) from the upper to the lower compartment to calculate the endothelial permeability coefficient of LY (PeLY).
To discriminate the impact of TNF-α and IL-1β on these different pathways and based on our previous PeLY results obtained at 37 °C informing on the global crossing of PeLY (paracellular and transcellular), a PeLY experiment was also performed at 4 °C. […] Thus, inhibition of the transcellular transport allows us to observe only the modification on the paracellular permeability. Then, the transcellular transport of LY, corresponding to the difference between global PeLY and PeLY at 4 °C, was determined.
(§1) Each condition was studied in triplicate.
The BLEC monolayer integrity was evaluated after each treatment using the method described by Dehouck and colleagues. The endothelial permeability coefficient (Pe) was evaluated regarding the apical-to-basolateral transport of the LY integrity marker used at a final concentration of 50 µM in RH buffer at 37 °C. Briefly, the inserts containing BLECs were transferred to a new 12-well plate containing warm RH buffer (corresponding to the basolateral compartment), and then a volume of 500 µL of warm RH with 50 µM of LY buffer was added to the apical compartment. The inserts containing the BLECs and RH buffer with 50 µM of LY were then transferred to a new well containing warm RH every 20 min for 1 hour. […] For each condition, coculturing was performed in triplicate. To determine the PeLY values for BLECs, the slope of the clearance curves (PS = permeability × surface area product; in µL·min^−1) corresponding to the volume cleared from the apical to the basolateral compartment (in µL) for 60 min was calculated for the filters with only Matrigel coating and for those with Matrigel coating and BLECs, denoted PSf and PSt, respectively. From these values, the PS values for BLECs (PSe) were determined according to the formula “[…]”. Then, the PeLY values for BLECs (in cm·min^−1) were obtained by the calculation “PeLY = PSe/S”, with PSe in cm^3·min^−1 and S being the filter surface area (= 1.12 cm^2). The same experiment was also performed at 4 °C to block the transcellular permeability of LY and to identify only the paracellular permeability of LY. Following these experiments, the transcellular permeability can be deduced, which corresponds to the PeLY values at 37 °C subtracted by those of PeLY at 4 °C. The mass balance (in %) was determined from the amount of LY in the apical and basolateral compartment at the end of the experiment divided by the total amount initially added in the apical compartment at time zero. To be taken into consideration for the Pe determination, the mass balance should be between 80% and 120%.

BLECs = assay: Western immunoblotting of junctional proteins in BLECs; assay type: cell-based, human; details: 10 ng·mL^−1, 24 h
Procedure: as §1
After 24 h of treatments with or without proinflammatory cytokines, BLECs were washed twice with cold RH buffer and scraped with 70 μL of RIPA 1X lysis buffer (10 mM Tris-Cl (pH 8.0), 1 mM EDTA, 0.5 mM EGTA, 1% Triton X-100, 0.1% sodium deoxycholate, 0.1% SDS, 140 mM NaCl) (Merck Millipore, Burlington, MA, USA) or UT4 lysis buffer (7M Urea, 2M Thiourea, 4% CHAPS), both supplemented with a cocktail of phosphatase and protease inhibitors (1% protease inhibitors cocktail #P8340; 1% phosphatase inhibitors cocktail 1 P2850; 1% phosphatase inhibitors cocktail 2 #P5726; 1% protease inhibitors cocktail #P8340) purchased from Sigma-Aldrich (Lyon, France). Then, a centrifugation at 10,000 rpm for 10 min at 4 °C was achieved to save the supernatant of the lysate. This was later sonicated two times for 5 s on ice. The concentration of the protein lysate was quantified using the Bradford method (#5000006; rad, Munich, Germany). The protein samples were then stored at −20 °C.
20 μg of total protein was mixed with Laemmli 4X (#1610747; Biorad, Munich, Germany) supplemented with β-mercaptoethanol (Sigma-Aldrich, Germany). Depending on the protein target, details of the denaturation and reduction steps of the protein extract are described in Table 3. Then, the protein mixes were electrophoresed using Criterion™ TGX™ (Tris-Glycine eXtended) precast gels (Biorad, Munich, Germany) and subsequently electrotransferred to nitro-cellulose membranes (GE Healthcare, Munich, Germany). Once the previous step was completed, Tris-buffered saline 0.1% Tween 20 (TBST; 20 mM Tris-HCl, pH 8.0, 500 mM NaCl, 0.1% Tween 20) supplemented with 5% skimmed milk was added on membrane to block nonspecific binding sites for 1 h under agitation at RT. Membranes were incubated in the appropriate primary antibodies (as described in Table 3) and incubated at 4 °C overnight, except β-actin (20 min at RT).
The following morning, the membranes were rinsed with TBST three times for 5 min each under agitation, and then incubated with the horseradish peroxidase-conjugated secondary antibody anti-rabbit (1:8000, Dako/Agilent Technologies, Inc., Santa Clara, CA, USA) or secondary antibody anti-mouse (1:5000, Dako/Agilent Technologies, Inc., Santa Clara, CA, USA) for 1 h at RT. […] Quantification of the relative densities of bands was performed with TotalLab TL 100 1D Gel Analysis software (Nonlinear Dynamics, Newcastle, UK). The protein expression normalization was conducted with anti-β-actin. Studies were performed with at least three independent experiments, with at least two Western immunoblottings per experiment.

| Substance | increase in transcellular passage of LY through BLEC monolayer compared to control (BLEC monolayer) [%] | increase in paracellular passage of LY through BLEC monolayer compared to control (BLEC monolayer) [%] | PeLY of BLECs after cytokine treatment (BLEC monolayer) | greater increase in transcellular passage of LY with IL-1β compared to TNF-α treatment (BLEC monolayer; both 10 ng·mL^−1, 24 h) [%] | Claudin-5 protein levels versus control (BLECs) | decrease of ZO-1 protein expression compared to control (BLECs; normalized to β-actin) [%] | decrease of claudin-3 protein level compared to control (BLECs; normalized to β-actin) [%] | decrease of occludin protein level compared to control (BLECs; normalized to β-actin) [%] | decrease of tricellulin protein level compared to control (BLECs; normalized to β-actin) [%] | greater increase in paracellular passage of LY with TNF-α compared to IL-1β treatment (BLEC monolayer; both 10 ng·mL^−1, 24 h) [%] | VE-cadherin protein level versus control (BLECs; normalized to β-actin) | ZO-1 protein level versus control (BLECs; normalized to β-actin) | increase of Claudin-5 protein expression compared to control (BLECs; normalized to β-actin) [%] |
| --- | --- | --- | --- | --- | --- | --- | --- | --- | --- | --- | --- | --- | --- |
| interleukin-1β [IL-1β] | 94.2 | 41.3 | 0.95 ± 0.05 × 10^−3 cm·min^−1 | 54.2 | not reflected by a change in Claudin-5 protein levels | 26.4 | 73.1 | 33.5 | 51.0 | – | – | – | – |
| tumor necrosis factor-α [TNF-α] | 40.1 | 175.2 | 1.00 ± 0.03 × 10^−3 cm·min^−1 | – | – | – | 57.3 | 38.1 | 50.9 | 133.9 | not significantly different | not significantly different | 40.2 |
